Data published in patent US10870647B2, “Imidazopyridine derivative, method for preparing same, and pharmaceutical composition containing same as active ingredient for preventing or treating cancer” (DAEGU-GYEONGBUK MEDICAL INNOVATION FOUNDATION, priority 2016, dated 2020).
Where two headings read alike, the source gives them in different places.

Experiments:
Test in all cases: Kinase selectivity, scanMAX Kinase assay panel (DiscoverX), % control at 1 uM
Format in all cases: binding
[1] = target: T1, scanMAX Kinase assay panel (Homo sapiens, UniProt P16591); settings: FER; 1 uM; read-out: Percent Control (%)
T1 construct: purchased DiscoverX
T1 sequence (P16591 whole entry): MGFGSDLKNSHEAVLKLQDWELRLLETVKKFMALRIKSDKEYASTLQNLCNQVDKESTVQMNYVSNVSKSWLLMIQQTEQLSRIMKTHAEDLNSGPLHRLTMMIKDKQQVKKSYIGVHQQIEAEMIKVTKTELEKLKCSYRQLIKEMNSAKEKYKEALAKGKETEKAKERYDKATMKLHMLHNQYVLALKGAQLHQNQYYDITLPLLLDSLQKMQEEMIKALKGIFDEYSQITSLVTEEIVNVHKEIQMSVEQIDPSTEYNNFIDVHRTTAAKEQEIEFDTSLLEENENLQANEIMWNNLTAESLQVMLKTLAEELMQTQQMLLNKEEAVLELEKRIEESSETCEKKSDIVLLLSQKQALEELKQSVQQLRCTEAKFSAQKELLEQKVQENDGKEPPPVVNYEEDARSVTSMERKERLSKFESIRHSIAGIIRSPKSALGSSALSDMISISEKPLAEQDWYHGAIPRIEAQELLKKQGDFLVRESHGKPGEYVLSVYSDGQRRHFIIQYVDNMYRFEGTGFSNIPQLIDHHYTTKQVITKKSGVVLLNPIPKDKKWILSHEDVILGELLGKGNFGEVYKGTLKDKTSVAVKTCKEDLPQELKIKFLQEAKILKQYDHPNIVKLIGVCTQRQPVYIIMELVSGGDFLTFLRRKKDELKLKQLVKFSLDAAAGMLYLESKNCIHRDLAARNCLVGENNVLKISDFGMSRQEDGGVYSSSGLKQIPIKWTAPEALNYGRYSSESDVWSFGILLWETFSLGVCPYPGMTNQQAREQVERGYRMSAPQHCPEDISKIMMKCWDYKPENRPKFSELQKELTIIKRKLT
In short: (§1)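 Binding across the scanMAX kinase panel was tested at 1 uM compound. % control = (compound − positive control)/(negative control − positive control) × 100; below 35 counted as active.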

[2] = target: T2, scanMAX Kinase assay panel (Homo sapiens, UniProt P42336, I800L); settings: PIK3CA (I800L); 1 uM; read-out: Percent Control (%)
T2 construct: purchased DiscoverX
In short: as §1

[3] = target: T3, scanMAX Kinase assay panel (Homo sapiens, UniProt P31152); settings: ERK4; 1 uM; read-out: Percent Control (%)
T3 construct: purchased DiscoverX
T3 sequence (P31152 whole entry): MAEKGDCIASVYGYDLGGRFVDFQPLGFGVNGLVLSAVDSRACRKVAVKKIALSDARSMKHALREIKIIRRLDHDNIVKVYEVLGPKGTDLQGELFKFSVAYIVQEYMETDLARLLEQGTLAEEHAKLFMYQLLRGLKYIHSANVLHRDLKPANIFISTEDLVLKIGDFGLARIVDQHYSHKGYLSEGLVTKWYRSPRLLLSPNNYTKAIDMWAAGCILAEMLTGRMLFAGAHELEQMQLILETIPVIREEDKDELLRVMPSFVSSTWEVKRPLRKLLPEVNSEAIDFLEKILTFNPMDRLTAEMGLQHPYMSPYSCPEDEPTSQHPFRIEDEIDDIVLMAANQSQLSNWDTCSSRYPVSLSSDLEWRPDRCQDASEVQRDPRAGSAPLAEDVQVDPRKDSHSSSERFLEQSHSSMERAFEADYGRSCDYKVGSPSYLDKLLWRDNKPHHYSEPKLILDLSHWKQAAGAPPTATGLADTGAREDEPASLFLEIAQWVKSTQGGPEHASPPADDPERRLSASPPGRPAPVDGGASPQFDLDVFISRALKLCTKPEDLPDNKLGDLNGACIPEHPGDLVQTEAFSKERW
In short: as §1

[4] = target: T4, scanMAX Kinase assay panel (Homo sapiens, UniProt Q13177); settings: PAK2; 1 uM; read-out: Percent Control (%)
T4 construct: purchased DiscoverX
T4 sequence (Q13177 whole entry): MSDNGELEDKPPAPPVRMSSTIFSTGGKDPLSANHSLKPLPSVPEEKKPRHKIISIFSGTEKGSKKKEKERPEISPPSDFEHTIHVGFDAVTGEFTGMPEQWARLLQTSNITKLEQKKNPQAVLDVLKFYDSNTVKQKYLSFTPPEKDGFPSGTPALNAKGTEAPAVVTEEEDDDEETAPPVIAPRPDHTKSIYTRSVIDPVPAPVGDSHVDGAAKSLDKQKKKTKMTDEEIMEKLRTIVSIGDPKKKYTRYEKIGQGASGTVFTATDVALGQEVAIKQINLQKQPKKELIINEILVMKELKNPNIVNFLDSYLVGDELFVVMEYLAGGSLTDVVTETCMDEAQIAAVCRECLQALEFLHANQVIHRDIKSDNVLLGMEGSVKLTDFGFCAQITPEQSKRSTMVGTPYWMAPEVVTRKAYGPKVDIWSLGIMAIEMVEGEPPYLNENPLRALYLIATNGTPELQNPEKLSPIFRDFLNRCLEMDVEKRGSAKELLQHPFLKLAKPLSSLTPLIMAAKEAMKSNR
In short: as §1

[5] = target: T5, scanMAX Kinase assay panel (Homo sapiens, UniProt P11802); settings: 1 uM, read-out: Percent Control (%)
T5 construct: purchased DiscoverX
T5 sequence (P11802 whole entry): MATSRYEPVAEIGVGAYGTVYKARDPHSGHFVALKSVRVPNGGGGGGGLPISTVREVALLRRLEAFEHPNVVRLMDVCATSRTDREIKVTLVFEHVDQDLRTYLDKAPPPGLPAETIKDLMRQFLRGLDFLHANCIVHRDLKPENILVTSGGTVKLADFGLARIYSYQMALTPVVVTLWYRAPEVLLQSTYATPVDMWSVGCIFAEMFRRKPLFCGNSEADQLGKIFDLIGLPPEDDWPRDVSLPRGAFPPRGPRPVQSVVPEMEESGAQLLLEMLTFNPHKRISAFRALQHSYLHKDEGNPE
In short: as §1

[6] = target: T6, scanMAX Kinase assay panel (Homo sapiens, UniProt Q13705); settings: ACVR2B; 1 uM; read-out: Percent Control (%)
T6 construct: purchased DiscoverX
T6 sequence (Q13705 19-512): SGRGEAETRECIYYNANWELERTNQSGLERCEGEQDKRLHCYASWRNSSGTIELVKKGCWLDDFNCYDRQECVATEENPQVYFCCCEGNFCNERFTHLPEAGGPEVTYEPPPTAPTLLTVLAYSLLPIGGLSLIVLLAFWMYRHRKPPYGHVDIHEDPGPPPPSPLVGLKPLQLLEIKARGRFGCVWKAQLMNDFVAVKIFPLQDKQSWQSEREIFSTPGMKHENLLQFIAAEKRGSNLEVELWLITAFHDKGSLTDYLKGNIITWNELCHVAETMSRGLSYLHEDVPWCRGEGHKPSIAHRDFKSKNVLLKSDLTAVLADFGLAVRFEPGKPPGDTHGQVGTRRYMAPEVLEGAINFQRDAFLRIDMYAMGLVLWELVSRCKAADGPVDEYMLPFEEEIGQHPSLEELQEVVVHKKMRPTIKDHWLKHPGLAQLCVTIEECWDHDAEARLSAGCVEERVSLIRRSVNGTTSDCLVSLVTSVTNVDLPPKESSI
In short: as §1

[7] = target: T7, scanMAX Kinase assay panel (Homo sapiens, UniProt Q06418); settings: TYRO3; 1 uM; read-out: Percent Control (%)
T7 construct: purchased DiscoverX
T7 sequence (Q06418 41-890): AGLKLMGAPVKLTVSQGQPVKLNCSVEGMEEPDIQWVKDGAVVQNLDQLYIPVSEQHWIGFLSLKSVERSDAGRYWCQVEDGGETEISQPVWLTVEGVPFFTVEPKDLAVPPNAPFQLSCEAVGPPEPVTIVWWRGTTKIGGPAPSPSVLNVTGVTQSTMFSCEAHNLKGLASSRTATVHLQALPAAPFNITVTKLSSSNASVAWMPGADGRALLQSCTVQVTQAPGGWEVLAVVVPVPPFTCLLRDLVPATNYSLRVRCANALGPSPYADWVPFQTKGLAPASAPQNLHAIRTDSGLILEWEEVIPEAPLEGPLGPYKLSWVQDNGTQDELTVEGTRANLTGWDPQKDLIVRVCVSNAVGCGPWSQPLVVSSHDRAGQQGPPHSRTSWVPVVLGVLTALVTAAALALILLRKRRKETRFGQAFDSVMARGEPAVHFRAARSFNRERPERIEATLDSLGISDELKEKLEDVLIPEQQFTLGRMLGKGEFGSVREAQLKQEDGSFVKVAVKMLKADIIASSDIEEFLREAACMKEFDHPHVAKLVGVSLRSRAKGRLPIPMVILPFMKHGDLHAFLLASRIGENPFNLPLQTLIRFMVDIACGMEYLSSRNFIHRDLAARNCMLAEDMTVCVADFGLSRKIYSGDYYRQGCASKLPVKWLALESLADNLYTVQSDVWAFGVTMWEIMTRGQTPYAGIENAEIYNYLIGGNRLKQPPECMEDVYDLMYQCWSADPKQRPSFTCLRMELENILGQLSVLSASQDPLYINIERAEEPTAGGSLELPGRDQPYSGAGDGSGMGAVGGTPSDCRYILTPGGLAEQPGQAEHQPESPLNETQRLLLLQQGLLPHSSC
In short: as §1

[8] = target: T8, scanMAX Kinase assay panel (Homo sapiens, UniProt Q6DT37); settings: DMPK2; 1 uM; read-out: Percent Control (%)
T8 construct: purchased DiscoverX
T8 sequence (Q6DT37 whole entry): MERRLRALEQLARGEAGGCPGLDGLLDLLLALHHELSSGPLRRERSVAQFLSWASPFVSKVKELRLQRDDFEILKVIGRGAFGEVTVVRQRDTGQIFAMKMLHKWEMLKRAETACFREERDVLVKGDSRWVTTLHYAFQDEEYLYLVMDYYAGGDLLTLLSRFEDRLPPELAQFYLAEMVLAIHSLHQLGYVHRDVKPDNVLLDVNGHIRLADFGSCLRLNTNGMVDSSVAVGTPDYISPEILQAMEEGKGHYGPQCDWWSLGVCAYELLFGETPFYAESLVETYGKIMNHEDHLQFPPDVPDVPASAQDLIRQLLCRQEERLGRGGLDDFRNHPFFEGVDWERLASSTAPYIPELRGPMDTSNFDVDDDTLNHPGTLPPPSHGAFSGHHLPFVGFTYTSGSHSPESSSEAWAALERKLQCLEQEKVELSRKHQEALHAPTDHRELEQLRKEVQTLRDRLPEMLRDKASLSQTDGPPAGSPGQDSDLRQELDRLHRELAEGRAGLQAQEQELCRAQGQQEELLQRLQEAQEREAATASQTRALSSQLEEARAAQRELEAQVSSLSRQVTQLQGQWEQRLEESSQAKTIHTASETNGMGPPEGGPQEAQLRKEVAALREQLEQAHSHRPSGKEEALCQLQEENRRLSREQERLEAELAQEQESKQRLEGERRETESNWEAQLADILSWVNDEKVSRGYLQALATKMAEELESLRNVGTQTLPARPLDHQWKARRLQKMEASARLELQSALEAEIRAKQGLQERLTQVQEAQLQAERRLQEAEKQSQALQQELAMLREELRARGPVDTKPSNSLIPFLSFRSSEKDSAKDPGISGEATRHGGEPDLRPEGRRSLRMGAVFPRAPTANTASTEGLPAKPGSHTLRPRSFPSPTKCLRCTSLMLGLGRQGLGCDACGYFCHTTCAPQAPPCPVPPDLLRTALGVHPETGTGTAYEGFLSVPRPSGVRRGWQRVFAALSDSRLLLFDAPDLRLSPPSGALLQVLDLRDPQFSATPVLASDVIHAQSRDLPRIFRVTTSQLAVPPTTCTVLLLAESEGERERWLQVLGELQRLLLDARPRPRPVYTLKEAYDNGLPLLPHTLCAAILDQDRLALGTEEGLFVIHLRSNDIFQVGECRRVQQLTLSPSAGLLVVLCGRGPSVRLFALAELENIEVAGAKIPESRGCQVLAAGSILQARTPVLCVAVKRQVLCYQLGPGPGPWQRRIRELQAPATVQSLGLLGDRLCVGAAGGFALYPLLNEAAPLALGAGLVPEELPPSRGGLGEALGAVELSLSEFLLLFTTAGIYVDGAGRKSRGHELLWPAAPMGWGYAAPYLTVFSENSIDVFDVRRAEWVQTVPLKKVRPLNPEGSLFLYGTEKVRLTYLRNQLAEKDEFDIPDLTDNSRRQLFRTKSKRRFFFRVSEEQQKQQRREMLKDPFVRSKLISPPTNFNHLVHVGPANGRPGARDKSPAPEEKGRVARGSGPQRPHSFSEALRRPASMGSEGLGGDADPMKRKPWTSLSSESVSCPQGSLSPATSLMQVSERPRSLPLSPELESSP
In short: as §1

[9] = target: T9, scanMAX Kinase assay panel (Homo sapiens, UniProt P17612); settings: PKAC-alpha; 1 uM; read-out: Percent Control (%)
T9 construct: purchased DiscoverX
In short: as §1

[10] = target: T10, scanMAX Kinase assay panel (Homo sapiens, UniProt P36897); settings: TGFBR1; 1 uM; read-out: Percent Control (%)
T10 construct: purchased DiscoverX
T10 sequence (P36897 34-503): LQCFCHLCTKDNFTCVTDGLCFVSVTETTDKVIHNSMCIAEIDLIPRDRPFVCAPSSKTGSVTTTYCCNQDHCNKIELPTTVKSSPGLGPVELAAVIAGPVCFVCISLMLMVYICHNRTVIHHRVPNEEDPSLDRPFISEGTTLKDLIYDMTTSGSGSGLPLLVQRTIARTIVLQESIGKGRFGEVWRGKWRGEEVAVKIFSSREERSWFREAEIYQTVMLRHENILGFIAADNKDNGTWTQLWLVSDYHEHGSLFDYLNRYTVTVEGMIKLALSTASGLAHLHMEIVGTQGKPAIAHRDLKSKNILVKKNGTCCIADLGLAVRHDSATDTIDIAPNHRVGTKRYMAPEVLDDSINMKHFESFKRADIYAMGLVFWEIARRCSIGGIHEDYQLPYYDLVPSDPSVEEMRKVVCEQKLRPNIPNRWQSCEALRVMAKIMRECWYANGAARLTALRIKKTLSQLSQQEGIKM
In short: as §1

[11] = target: T11, scanMAX Kinase assay panel (Homo sapiens, UniProt P08581, Y1235D); settings: MET (Y1235D); 1 uM; read-out: Percent Control (%)
T11 construct: purchased DiscoverX
In short: as §1

[12] = target: T12, scanMAX Kinase assay panel (Homo sapiens, UniProt Q86V86); settings: PIM3; 1 uM; read-out: Percent Control (%)
T12 construct: purchased DiscoverX
In short: as §1

[13] = target: T13, scanMAX Kinase assay panel (Homo sapiens, UniProt P35968); settings: VEGFR2; 1 uM; read-out: Percent Control (%)
T13 construct: purchased DiscoverX
In short: as §1

[14] = target: T14, scanMAX Kinase assay panel (Homo sapiens, UniProt Q15418); settings: 1 uM, read-out: Percent Control (%)
T14 construct: purchased DiscoverX
T14 sequence (Q15418 whole entry): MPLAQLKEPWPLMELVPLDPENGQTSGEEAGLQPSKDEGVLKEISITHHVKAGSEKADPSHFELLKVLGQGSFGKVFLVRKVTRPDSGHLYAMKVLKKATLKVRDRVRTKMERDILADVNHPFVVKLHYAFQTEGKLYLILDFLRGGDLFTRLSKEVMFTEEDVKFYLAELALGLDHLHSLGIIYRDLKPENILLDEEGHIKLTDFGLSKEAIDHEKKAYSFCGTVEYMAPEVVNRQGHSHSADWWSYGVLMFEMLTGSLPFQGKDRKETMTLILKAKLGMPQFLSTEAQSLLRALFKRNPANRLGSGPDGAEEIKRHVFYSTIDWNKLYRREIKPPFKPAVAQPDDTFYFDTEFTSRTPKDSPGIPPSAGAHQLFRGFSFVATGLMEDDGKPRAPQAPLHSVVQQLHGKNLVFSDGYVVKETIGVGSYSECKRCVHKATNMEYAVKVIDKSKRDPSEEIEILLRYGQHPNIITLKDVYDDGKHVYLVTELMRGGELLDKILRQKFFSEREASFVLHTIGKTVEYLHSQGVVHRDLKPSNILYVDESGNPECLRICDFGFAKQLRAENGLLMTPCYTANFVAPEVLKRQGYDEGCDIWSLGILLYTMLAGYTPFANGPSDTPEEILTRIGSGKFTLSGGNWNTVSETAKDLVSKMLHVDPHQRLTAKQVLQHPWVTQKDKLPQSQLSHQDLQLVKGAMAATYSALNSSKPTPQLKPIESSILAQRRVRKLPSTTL
In short: as §1

Structure (SMILES) | remaining binding at 1 µM [1] [%] | remaining binding at 1 µM [2] [%] | remaining binding at 1 µM [3] [%] | remaining binding at 1 µM [4] [%] | remaining binding at 1 µM ([5]; CDK4-cyclinD1) [%] | remaining binding at 1 µM ([5]; CDK4-cyclinD3) [%] | remaining binding at 1 µM ([5]; CDK4) [%] | remaining binding at 1 µM [6] [%] | remaining binding at 1 µM [7] [%] | remaining binding at 1 µM [8] [%] | remaining binding at 1 µM [9] [%] | remaining binding at 1 µM [10] [%] | remaining binding at 1 µM [11] [%] | remaining binding at 1 µM [12] [%] | remaining binding at 1 µM [13] [%] | remaining binding at 1 µM ([14]; RSK1 (Kin.Dom.1-N-terminal)) [%] | remaining binding at 1 µM ([14]; RSK1 (Kin.Dom.2-C-terminal)) [%]
Cc1ccc(C(=O)Nc2ccc(CN3CCN(C)CC3)c(C(F)(F)F)c2)cc1C#Cc1cnc2c(Nc3cnn(C)c3)cccn12 [Example 1, 4-methyl-3-((8-((1-methyl-1H-pyrazol-4-yl)amino)imidazo[1,2-a]pyridin-3-yl)ethynyl)-N-(4-((4-methylpiperazin-1-yl)methyl)-3-(trifluoromethyl)phenyl)benzamide] | 1 | 80 | 91 | 64 | 84 | 78 | 83 | 93 | 21 | 100 | 35 | 85 | 61 | 88 | 5 | 60 | 64
Cc1cn(-c2cc(NC(=O)c3ccc(C)c(C#Cc4cnc5c(Nc6cnn(C)c6)cccn45)c3)cc(C(F)(F)F)c2)cn1 [Example 12, 4-methyl-N-(3-(4-methyl-1H-imidazol-1-yl)-5-(trifluoromethyl)phenyl)-3-((8-((1-methyl-1H-pyrazol-4-yl)amino)imidazo[1,2-a]pyridin-3-yl)ethynyl)benzamide] | 40 | 75 | 100 | 54 | 100 | 100 | 100 | 96 | 42 | 92 | 93 | 85 | 59 | 90 | 55 | 79 | 69
Cc1ccc(NC(=O)C2(C(=O)Nc3ccc(F)cc3)CC2)cc1C#Cc1cnc2c(Nc3cnn(C(C)C)c3)cccn12 [Example 78] | 100 | 92 | 100 | 100 | 100 | 100 | 100 | 94 | 95 | 100 | 100 | 100 | 82 | 100 | 63 | 100 | 95
